Data reported in US8592415B2, “Selective kinase inhibitors” (Reaction Biology Corp., priority 2009, dated 2013).

What was measured:
Format in all cases: biochemical
JAK3 = JAK3 (Homo sapiens (Human), UniProt P52333); test: In vitro JAK kinase enzymatic assay (JAK3)
Method: (§1) The JAK3 kinase is recombinant human protein (catalytic domain, amino acids 781-1124 with GST-tag), expressed in insect cells (Invitrogen Catalog PV3855). The substrate is poly-glutamic acid-tyrosin peptide, Poly-(GT) (4:1) (Sigma-Aldrich, catalog P7244). [γ-^33P]-ATP is purchased from Perkin Elmer (catalog NEG602H001MC) (EasyTides). Kinase reaction buffer is 100 mM HEPES (pH 7.5), 20 mM MgCl2, 2 mM EGTA, 0.02% Brij 35. The JAK1 (Invitrogen Catalog PV4774), JAK2 (Invitrogen Catalog PV4210) and TYK2 Invitrogen Catalog PV4790) enzymatic assays are performed in the similar way. JAK1 and JAK2 substrate is Poly-(GT) (4:1), but TYK2 substrate is peptide with sequences of […]. The reaction is carried for 2 hours at room temperature. After the reactions are finished or stopped, portion or all the reaction mixtures are transferred onto filter paper P81 Phosphocellulose paper (Whatman catalog 3698-915) for binding the final radioisotope labeled products. The unreacted phosphate are washed away without interfering with the detection of real phosphorylated products. The final product can be detected by instruments such as scintillation counter, top counter or phosphoimager. The enzymatic assays can also performed in assays described those described in the art [e.g., Ma H et al, Expert Opin. Drug Discov. 3, 607-621 (2008); Olive D M, Expert Rev Proteomics, 1, 327-341 (2004)].
(§2) Signal=Bottom+(Top−Bottom)/(1+10^((Log(IC50)−Log [I])*Hill Slope) Bottom and Top refer to the post and pre-transition baselines, respectively.

JAK2 [1] = test: In vitro JAK kinase enzymatic assay (JAK2)
Method: as §1, with “The” for “The JAK3 kinase is recombinant human protein (catalytic domain, amino acids 781-1124 with GST-tag), expressed in insect cells (Invitrogen Catalog PV3855). The”, “After the reactions are finished or stopped, portion or all the reaction mixtures are transferred onto filter paper P81 Phosphocellulose paper (Whatman catalog 3698-915) for binding the final radioisotope labeled products.” left out, “Discov.” for “Discov. 3, 607-621 (2008); Olive D M, Expert Rev Proteomics, 1, 327-341 (2004)].”
as §2

JAK1 = JAK1 (Homo sapiens, UniProt P23458); test: In vitro JAK kinase enzymatic assay (JAK1)
Method: as §1, §2

TYK2 = TYK2 (Homo sapiens (Human), UniProt P29597); test: In vitro JAK kinase enzymatic assay (TYK2)
Method: as §1, §2

JAK2 [2] = biological target: JAK2 (Homo sapiens, UniProt O60674); test: In vitro JAK kinase enzymatic assay (JAK2)
Method: as §1, with “The” for “The JAK3 kinase is recombinant human protein (catalytic domain, amino acids 781-1124 with GST-tag), expressed in insect cells (Invitrogen Catalog PV3855). The”, “After the reactions are finished or stopped, portion or all the reaction mixtures are transferred onto filter paper P81 Phosphocellulose paper (Whatman catalog 3698-915) for binding the final radioisotope labeled products.” left out, “Discov.” for “Discov. 3, 607-621 (2008); Olive D M, Expert Rev Proteomics, 1, 327-341 (2004)].”
as §2

JAK2 (Homo sapiens, UniProt O60674), sequence (O60674 whole entry, looked up, the tested form may be a part): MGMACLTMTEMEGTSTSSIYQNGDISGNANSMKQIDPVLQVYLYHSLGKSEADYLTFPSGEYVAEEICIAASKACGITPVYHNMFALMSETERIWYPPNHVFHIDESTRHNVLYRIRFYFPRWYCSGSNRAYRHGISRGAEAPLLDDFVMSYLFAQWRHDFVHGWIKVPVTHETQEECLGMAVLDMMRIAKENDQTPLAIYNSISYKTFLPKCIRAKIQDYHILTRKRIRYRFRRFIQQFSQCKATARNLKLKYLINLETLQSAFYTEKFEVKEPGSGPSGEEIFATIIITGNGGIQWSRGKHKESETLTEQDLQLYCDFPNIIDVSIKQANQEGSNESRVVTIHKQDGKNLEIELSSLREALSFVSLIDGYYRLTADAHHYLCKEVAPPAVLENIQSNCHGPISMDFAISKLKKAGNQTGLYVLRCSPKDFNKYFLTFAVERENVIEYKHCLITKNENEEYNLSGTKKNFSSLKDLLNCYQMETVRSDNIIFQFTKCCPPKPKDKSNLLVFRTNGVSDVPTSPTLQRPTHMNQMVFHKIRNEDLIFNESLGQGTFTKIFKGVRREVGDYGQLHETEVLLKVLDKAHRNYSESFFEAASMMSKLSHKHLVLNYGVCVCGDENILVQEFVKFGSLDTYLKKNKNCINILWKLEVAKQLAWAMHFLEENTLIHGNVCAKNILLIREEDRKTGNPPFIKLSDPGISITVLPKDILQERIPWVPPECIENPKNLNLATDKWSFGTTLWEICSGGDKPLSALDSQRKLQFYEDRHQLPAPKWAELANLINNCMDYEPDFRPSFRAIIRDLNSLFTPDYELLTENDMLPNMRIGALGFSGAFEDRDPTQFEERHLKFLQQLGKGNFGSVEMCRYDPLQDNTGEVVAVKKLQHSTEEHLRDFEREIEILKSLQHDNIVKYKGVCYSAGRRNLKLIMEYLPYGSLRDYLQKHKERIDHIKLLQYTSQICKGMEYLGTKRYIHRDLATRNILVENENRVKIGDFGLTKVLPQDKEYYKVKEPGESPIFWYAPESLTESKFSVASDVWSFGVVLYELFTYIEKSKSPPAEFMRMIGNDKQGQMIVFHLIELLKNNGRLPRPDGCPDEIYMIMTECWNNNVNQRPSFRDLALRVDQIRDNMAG
JAK3, sequence (P52333 781-1124): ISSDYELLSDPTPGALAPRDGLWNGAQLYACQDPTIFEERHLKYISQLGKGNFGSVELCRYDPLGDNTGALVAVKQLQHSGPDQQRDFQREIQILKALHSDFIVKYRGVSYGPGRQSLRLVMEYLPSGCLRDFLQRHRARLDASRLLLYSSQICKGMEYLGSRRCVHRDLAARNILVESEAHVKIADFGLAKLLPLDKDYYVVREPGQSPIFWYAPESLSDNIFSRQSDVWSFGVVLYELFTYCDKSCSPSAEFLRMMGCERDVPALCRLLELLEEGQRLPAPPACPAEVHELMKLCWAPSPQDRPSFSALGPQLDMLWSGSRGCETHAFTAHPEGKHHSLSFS
TYK2, sequence (P29597 whole entry): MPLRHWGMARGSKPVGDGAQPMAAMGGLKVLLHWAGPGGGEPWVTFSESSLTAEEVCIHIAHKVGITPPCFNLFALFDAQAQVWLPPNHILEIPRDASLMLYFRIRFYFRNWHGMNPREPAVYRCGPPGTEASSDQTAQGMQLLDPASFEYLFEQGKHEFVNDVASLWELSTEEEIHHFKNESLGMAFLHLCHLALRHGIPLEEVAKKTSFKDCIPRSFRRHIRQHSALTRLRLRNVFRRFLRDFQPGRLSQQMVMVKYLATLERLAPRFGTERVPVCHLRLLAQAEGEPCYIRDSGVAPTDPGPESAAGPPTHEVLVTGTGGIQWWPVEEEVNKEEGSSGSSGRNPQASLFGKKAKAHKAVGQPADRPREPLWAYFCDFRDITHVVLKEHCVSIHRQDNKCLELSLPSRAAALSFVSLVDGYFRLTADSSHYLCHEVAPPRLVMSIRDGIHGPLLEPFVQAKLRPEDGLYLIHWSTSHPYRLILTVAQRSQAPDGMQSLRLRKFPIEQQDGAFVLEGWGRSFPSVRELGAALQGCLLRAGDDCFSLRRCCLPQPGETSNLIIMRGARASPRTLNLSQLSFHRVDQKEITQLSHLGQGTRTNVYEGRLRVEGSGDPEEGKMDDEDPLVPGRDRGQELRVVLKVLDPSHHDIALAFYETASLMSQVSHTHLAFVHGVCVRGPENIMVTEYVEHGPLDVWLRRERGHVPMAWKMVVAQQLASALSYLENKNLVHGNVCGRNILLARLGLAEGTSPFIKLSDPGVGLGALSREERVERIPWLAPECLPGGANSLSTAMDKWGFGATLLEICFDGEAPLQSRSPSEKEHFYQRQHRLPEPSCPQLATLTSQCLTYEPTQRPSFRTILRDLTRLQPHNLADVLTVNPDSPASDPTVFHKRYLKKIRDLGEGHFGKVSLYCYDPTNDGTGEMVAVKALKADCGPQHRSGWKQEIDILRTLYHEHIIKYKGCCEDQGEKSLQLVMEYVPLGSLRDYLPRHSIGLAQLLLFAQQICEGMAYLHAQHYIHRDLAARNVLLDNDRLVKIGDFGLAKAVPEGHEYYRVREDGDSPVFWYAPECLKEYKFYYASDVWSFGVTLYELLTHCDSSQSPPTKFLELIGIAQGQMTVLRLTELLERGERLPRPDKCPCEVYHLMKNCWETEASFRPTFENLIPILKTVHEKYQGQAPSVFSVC

Row | Molecule | IC50 (JAK3) [µM] | IC50 (JAK2 [1]) [µM] | IC50 (JAK1) [µM] | IC50 (TYK2) [µM] | IC50 (JAK2 [2]) [µM]
1 | C=CCC(=O)Nc1cccc(-c2cnc3ccccc3n2)c1 [Example 23, N-(3-(quinoxalin-2-yl)phenyl)but-3-enamide] | > 10 | > 10 | > 10 | > 10 | –
2 | N-[3-(quinoxalin-2-yl)phenyl]cyclopropanecarboxamide [Example 14] | > 50 | – | > 50 | > 50 | –
3 | C=CC(=O)Nc1cccc(-c2cnc3ccccc3n2)c1 [Example 22, N-(3-(quinoxalin-2-yl)phenyl)acrylamide] | 0.045 | – | > 10 | > 10 | > 10
4 | O=C(Nc1cccc(-c2cnc3ccccc3n2)c1)c1ccco1 [Example 12, N-[3-(quinoxalin-2-yl)phenyl]furan-2-carboxamide] | > 50 | 24.6 | > 50 | > 50 | –
5 | O=C(CN1CCCC1)Nc1cccc(-c2cnc3ccccc3n2)c1 [Example 3, 2-pyrrolidin-1-yl-N-(3-quinoxalin-2-ylphenyl)acetamide] | > 20 | > 20 | > 20 | > 20 | –
6 | CS(=O)(=O)Nc1cccc(-c2cnc3ccccc3n2)c1 [Example 15, N-[3-(quinoxalin-2-yl)phenyl]methanesulfonamide] | > 50 | 18.5 | > 50 | > 50 | –
7 | CN1CCN(CC(=O)Nc2cccc(-c3cnc4ccccc4n3)c2)CC1 [Example 17, 2-(4-methylpiperazin-1-yl)-N-[3-(quinoxalin-2-yl)phenyl]acetamide] | > 50 | > 50 | > 50 | > 50 | –
8 | O=S(=O)(Nc1cccc(-c2cnc3ccccc3n2)c1)c1cccs1 [Example 13, N-[3-(quinoxalin-2-yl)phenyl]thiophene-2-sulfonamide] | > 50 | – | > 50 | > 50 | 55.5
9 | CN(C)CC(=O)Nc1cccc(-c2cnc3ccccc3n2)c1 [Example 2, N^2,N^2-dimethyl-N^1-(3-quinoxalin-2-ylphenyl)glycinamide] | > 50 | > 50 | > 50 | > 50 | –
10 | 2-[4-(4-chlorophenyl)piperazin-1-yl]-N-(3-(quinoxalin-2-yl)phenyl)acetamide [Example 4] | 2.7 | – | > 20 | > 20 | > 20
11 | 1-methyl-3-[3-(quinoxalin-2-yl)phenyl]thiourea [Example 11] | > 50 | – | > 50 | > 50 | 25.5
12 | COc1ccc(NC(=O)Nc2cccc(-c3cnc4ccccc4n3)c2)cc1 [Example 10, 1-(4-methoxyphenyl)-3-[3-(quinoxalin-2-yl)phenyl]urea] | > 50 | > 50 | > 50 | > 50 | –
13 | O=C(CC(=O)C(F)(F)F)Nc1cccc(-c2cnc3ccccc3n2)c1 [Example 26, 4,4,4-trifluoro-3-oxo-N-(3-(quinoxalin-2-yl)phenyl)butanamide] | > 10 | > 10 | > 10 | > 10 | –
14 | CSCC(=O)Nc1cccc(-c2cnc3ccccc3n2)c1 [Example 25, 2-(methylthio)-N-(3-(quinoxalin-2-yl)phenyl)acetamide] | > 10 | > 10 | > 10 | > 10 | –
15 | O=C(CN1CCOCC1)Nc1cccc(-c2cnc3ccccc3n2)c1 [Example 20, 2-morpholino-N-(3-(quinoxalin-2-yl)phenyl)acetamide] | 34 | > 50 | > 50 | > 50 | –
16 | CCC(=O)Nc1cccc(-c2cnc3ccccc3n2)c1 [Example 6, N-[3-(quinoxalin-2-yl)phenyl]propionamide] | > 50 | – | > 50 | > 50 | > 50
17 | O=C(CCCCl)Nc1cccc(-c2cnc3ccccc3n2)c1 [Example 5, 4-chloro-N-[3-(quinoxalin-2-yl)phenyl]butanamide] | > 50 | > 50 | > 50 | > 50 | –
18 | O=C(Nc1cccc(-c2cnc3ccccc3n2)c1)C(Cl)Cl [Example 18, 2,2-dichloro-N-[3-(quinoxalin-2-yl)phenyl]acetamide] | 0.5 | – | > 10 | > 10 | > 10
19 | CC(Cl)C(=O)Nc1cccc(-c2cnc3ccccc3n2)c1 (centres unmarked) [Example 21, 2-chloro-N-(3-(quinoxalin-2-yl)phenyl)propanamide] | 0.33 | – | > 50 | > 50 | > 50
20 | O=C(CCCl)Nc1cccc(-c2cnc3ccccc3n2)c1 [Example 19, 3-chloro-N-[3-(quinoxalin-2-yl)phenyl]propanamide] | > 50 | – | > 50 | > 50 | > 50
21 | O=C(Cn1cncn1)Nc1cccc(-c2cnc3ccccc3n2)c1 [Example 7, N-[3-(quinoxalin-2-yl)phenyl]-2-(1H-1,2,4-triazol-1-yl)acetamide] | > 50 | > 50 | > 50 | > 50 | –

The next lines start with the values.

Row | IC50 (JAK3) [µM] | IC50 (JAK2 [1]) [µM] | IC50 (JAK1) [µM] | IC50 (TYK2) [µM] | IC50 (JAK2 [2]) [µM] | Molecule
22 | > 10 | > 10 | > 10 | > 10 | – | O=C(CN1CCN(c2ccncc2)CC1)Nc1cccc(-c2cnc3ccccc3n2)c1 [Example 33, 2-(4-(pyridin-4-yl)piperazin-1-yl)-N-(3-(quinoxalin-2-yl)phenyl)acetamide]
23 | 13 | > 20 | > 20 | > 20 | – | O=C(CN1CCNCC1)Nc1cccc(-c2cnc3ccccc3n2)c1 [Example 35, 2-(piperazin-1-yl)-N-(3-(quinoxalin-2-yl)phenyl)acetamide]
24 | 0.0006 | > 10 | > 10 | > 10 | – | CS(=O)(=O)OCC(=O)Nc1cccc(-c2cnc3ccccc3n2)c1 [Example 27, 2-oxo-2-(3-(quinoxalin-2-yl)phenylamino)ethyl methanesulfonate]
25 | > 10 | > 10 | > 10 | > 10 | – | CC(=O)SCC(=O)Nc1cccc(-c2cnc3ccccc3n2)c1 [Example 30, S-2-oxo-2-(3-(quinoxalin-2-yl)phenylamino)ethyl ethanethioate]
26 | > 10 | – | > 10 | > 10 | – | CC(Nc1cccc(-c2cnc3ccccc3n2)c1)=C1CCOC1=O (racemic) [Example 31, (E/Z)-3-(1-(3-(quinoxalin-2-yl)phenylamino)ethylidene)dihydrofuran-2(3H)-one]
27 | > 10 | > 10 | > 10 | > 10 | – | NS(=O)(=O)CCC(=O)Nc1cccc(-c2cnc3ccccc3n2)c1 [Example 36, 3-(aminosulfonyl)-N-[3-(2-quinoxalinyl)phenyl]propanamide]
28 | > 10 | – | > 10 | > 10 | > 10 | O=C(CO)Nc1cccc(-c2cnc3ccccc3n2)c1 [Example 29, 2-hydroxy-N-(3-(quinoxalin-2-yl)phenyl)acetamide]
29 | 150 | > 10 | > 10 | > 10 | – | CC(=O)OCC(=O)Nc1cccc(-c2cnc3ccccc3n2)c1 [Example 28, 2-oxo-2-(3-(quinoxalin-2-yl)phenylamino)ethyl acetate]
30 | > 10 | – | > 10 | > 10 | > 10 | O=C(CN1CCC(O)CC1)Nc1cccc(-c2cnc3ccccc3n2)c1 [Example 34, 2-(4-hydroxypiperidin-1-yl)-N-(3-(quinoxalin-2-yl)phenyl)acetamide]
31 | > 10 | > 10 | > 10 | > 10 | – | CCOC(=O)CC(=O)Nc1cccc(-c2cnc3ccccc3n2)c1 [Example 32, ethyl 3-oxo-3-(3-(quinoxalin-2-yl)phenylamino)propanoate]
